One compound from patent US20250099485A1, “COMPOSITIONS FOR PROMOTING HAIR GROWTH” (ESTETRA SRL, priority 2021, published 2025) can be followed below.

For one data set, the system named is human dermal fibroblasts. Description: Wound healing gene expression RT-qPCR array, fibroblasts. Type of data set: cell-based. The note with it: 10^−7M, 15 h, relative to ethanol control. The source says: The healing properties of E4 were investigated at the transcriptional level by studying gene expression changes by RT-qPCR. 84 genes qPCR arrays focusing on the wound healing process were used. These arrays contain genes important for the three phases of wound healing process, including extra-cellular matrix (ECM) remodeling factors, inflammatory cytokines and chemokines as well as growth factors and major signaling molecules. The changes in gene expression were interpreted in a dermo cosmetic context in order to highlight the potential benefits of the E4 towards wound healing.
After 24 h seeded on 25 cm^2 culture flasks (T25), cells were treated with E4 during 15 h. The culture conditions were the same as the one used for the scratch test (see Example 2) and cells were treated with E4 in absence of FBS/HKGS. The cell density used for gene expression assay was lower than the ones used for the scratch tests: 15 800 cells/cm^2 for gene expression assay vs 113 636 cell/cm^2 for keratinocytes and 100 000 cells/cm^2 for fibroblasts in culture inserts for wound closure assay.
At the end of the 15 h treatment with E4 10^−7M or ethanol 0.1% used as control, total RNAs were extracted using the Qiagen RNeasy kit (Qiagen). Cells were rinsed with cold PBS and lysed in the ad hoc buffer provided in the kit. Extraction was performed according to the supplier's recommendations. The collected RNAs were stored at −80° C.
The RNA concentration was determined by spectrophotometric measurement (QIAxpert, Qiagen) and the RNA quality was analyzed by capillarity electrophoresis (Agilent Bioanalyzer 2100—Agilent RNA 6000 Nano Kit).
Reverse transcription was performed with kit “RT2 First Strand Kit” (Qiagen) from total RNA according to the manufacturer's instructions.
The qPCR method was used to quantify the expression changes of specific markers in the cDNA populations. The arrays “RT2 Profiler PCR Array human wound healing” containing specific primers for 84 target genes.
The amplification of target genes was performed following the supplier's recommendations thanks to a “HotStart Taq DNA Polymerase” and to the use of SYBR Green as detection method. The SYBR Green is a marker emitting fluorescence once inserted between the paired bases of nucleic acids. The fluorescence intensity is thus directly proportional to the quantity of produced amplicons.
The qPCRs were run using the Quantstudio7 Real-Time PCR System (Applied Biosystems) and its software (QuantStudio real time PCR Software v1.3. software, Applied Biosystems).
The data obtained for E4 treated conditions were compared to the ethanol control in both cell types. The threshold cycles (Ct) values were normalized to the mean of Ct of several housekeeping genes present on the array (indicated in the table below). The maximum Ct cut-off value was fixed at 36 cycles meaning that Ct values above 36 were not considered in the analysis.

Data set [1] concerns primary human dermal fibroblasts. Description: Fibroblast monolayer scratch assay, human. The format is cell-based. The note with it: 10^−10 M to 10^−6 M, three female donors, compared with E2. On the procedure:
Human skin was transferred to the laboratory in holding media (DMEM containing 4% penicillin-streptomycin and Amphotericin B solution) within 30 minutes of collection. Once defatted, the skin was rinsed in HBSS with 4% PSA followed by DPBS without antibiotics, then cut into thin strips and floated on 0.2% Dispase II in DPBS overnight at 4° C., followed by manual separation of the epidermis from the dermis. Primary human epidermal keratinocytes and primary human dermal fibroblasts were then isolated.
Confluent wells of both primary keratinocytes and fibroblasts were subjected to a highly validated scratch wounding procedure (using a 1 mL sterile filter tip). Post-scratching, cells were rinsed with DPBS and cell-specific media containing treatments added to each well. Cells were imaged on a ptychographic live cell imaging platform (Livecyte 2TM, Phasefocus) for 24-48 hours. Automated tracking of individual unlabeled cells will be combined with 3D cell measurements to quantify a range of wound-relevant cell parameters including scratch closure rate.
Dose range finding experiments were conducted with E4 (10^−10M to 10^−6M) and E2 with and without Mitomycin C (MMC, to inhibit proliferation) using vehicle as negative controls. […]

Data set [2] has as its system versican in dermal papilla (DP). Description: Hair follicle organ culture: versican expression, DP inductivity. The conditions noted are these: all tested concentrations, vs vehicle. The format is cell-based, human. On the procedure:
12-44 full-length frontotemporal hair follicles (HF) were obtained from four human female donors >50 years old. Donors were caucasian female subjects […], respectively (Donor 1: 12 temporal anagen HFs; Donor 2: 29; Donor 3: 44; Donor 4: 32). After microdissection from skin as described (Edelkamp et al., Methods Mol Biol, 2020, 2154:105-119; and Langan et al., Exp Dermatol, 2015, December; 24(12):903-1), HFs were placed in adequate culture medium and allowed a 24 h rest period to allow them to recover from the trauma of microdissection. Test substance (either vehicle (0.3% EtOH) or E4 at concentrations of 30 μM, 3 μM or 300 nM) was added to the medium at the end of the 24 h. Total culturing time was 5-7 days depending on the studied parameters and the experimental question. The experimental design for the hair follicle organ culture experiment is depicted in FIG. 12. Longer term culture experiments may be used to analyze the capacity to delay the onset of catagen.
Versican, a large chondroitin sulfate proteoglycan molecule, is expressed in DP in anagen HFs and diminishes in catagen HFs and its expression correlates with hair inductive properties (Yang, J Dermatol Sci 2010). Versican intensity was analyzed in the DP.

Data set [3] deals with mouse BMDM (bone marrow derived monocytes). Description: Immune cell polarization (qPCR NOS2/ARG1), mouse BMDM. The format is cell-based. The conditions noted are these: activated mouse bone marrow derived monocytes, qPCR marker. On the procedure:
Immune cell polarization was evaluated in vitro using markers for M1/TH-1 (NOS2) and M2/TH-2 (ARG1) phenotype with human monocytes and mouse monocytes (BMDM bone marrow derived monocytes).
An experiment was conducted to evaluate the anti-inflammatory effects of E4 or vehicle (negative control). qPCR methodology was used to assess the effects of E2 and E4 on immune cell polarization using well validated marker of pro-inflammatory (NOS2 for MI/TH-1 phenotype) and anti-inflammatory (ARG1 for ME/TH-2 phenotype) activity.

For data set [4] the following is noted: female, Lister Hooded, rat, in vivo, po, 15 mg/kg, 0.5 h.
Method: Tissue distribution was determined in female rats (partially pigmented and non-pigmented) using [^14C]-estetrol.
A group of six female Lister Hooded rats each received a single oral dose of [^14C]-estetrol. At each selected time (see below) one animal was killed (by overdose of CO2) followed by immediate snap freezing in hexane/solid CO2. The carcasses were retained for examination of the tissue distribution of radioactivity using the technique of quantitative whole body autoradiography (QWBA).
Times for analysis were: (0.5, 8, and 24 hours, 7, 14 and 35 days).
Frozen carcasses were subjected to whole-body autoradiography.
Where concentrations are reported, radioactivity was assumed to be associated with [^14C]-estetrol or any metabolic products derived from [^14C]-estetrol. The specific activities of the dosed test compounds were used for the calculation of concentrations in all cases. Recoveries of radioactivity are reported as percentage of administered radioactivity (% dose). Radioactivity concentrations are also reported as μg equivalents/g.

In the case of `C[C@]12CC[C@@H]3c4ccc(O)cc4CC[C@H]3[C@@H]1[C@@H](O)[C@@H](O)[C@@H]2O` [E4, 1,3,5 (10)-estratrien-3,15alpha,16alpha,17beta-tetrol], in the data set on human dermal fibroblasts, the “COL1A2 (Collagen alpha-2(I) chain) expression, FC” value is reported as 0.9445 Fold Change (FC); the “CTGF (CCN family member 2) expression, FC” value is 0.7643 Fold Change (FC); the “MAPK1 (Mitogen-activated protein kinase 1) expression, FC” value is listed as 0.9284 Fold Change (FC); the “MMP7 (Matrix metalloproteinase-7; Matrilysin) expression, FC” value is given as 1.1451 Fold Change (FC). In addition, in the data set on human dermal fibroblasts, the “SERPINE1 (Plasminogen activator inhibitor 1) expression, FC” value is listed as 0.8516 Fold Change (FC); the “VTN (Vitronectin) expression, FC” value was 0.7652 Fold Change (FC); the “WNT5A (Protein Wnt-5a) expression, FC” value is listed as 0.8930 Fold Change (FC). The “in vitro wound closure, human fibroblasts scratch assay” value in data set [1] was “promotes in vitro wound closure to a similar extent as E2”. Further, in data set [2], the “versican expression in DP cells” value was “tendentially increased”. Also, the “immune cell polarization, mouse BMDM” value in data set [3] is “switch from subtype M1 (pro-inflammatory) to subtype M2 (healing)”. For the same compound, in data set [4], the “Total amount of radioactivity in tissue, Skin (non-pigmented)” value is on record as 1.1 % dose administered/tissue and the “Total amount of radioactivity in tissue, Skin (pigmented)” value is 1.7 % dose administered/tissue.
